This note sets out measurements from patent publication US20250361230A1, “LATS Inhibitors and Uses Thereof” (The USA, as Represented by the Secretary, Dept. of Heath …, priority 2022, published 2025).

In general, IC50 refers to the concentration that gives 50% inhibition.

Assay type in all cases: biochemical
Assay [1] concerns the target T1, LATS1 (Homo sapiens, UniProt O95835).
T1 sequence (O95835 1-1130): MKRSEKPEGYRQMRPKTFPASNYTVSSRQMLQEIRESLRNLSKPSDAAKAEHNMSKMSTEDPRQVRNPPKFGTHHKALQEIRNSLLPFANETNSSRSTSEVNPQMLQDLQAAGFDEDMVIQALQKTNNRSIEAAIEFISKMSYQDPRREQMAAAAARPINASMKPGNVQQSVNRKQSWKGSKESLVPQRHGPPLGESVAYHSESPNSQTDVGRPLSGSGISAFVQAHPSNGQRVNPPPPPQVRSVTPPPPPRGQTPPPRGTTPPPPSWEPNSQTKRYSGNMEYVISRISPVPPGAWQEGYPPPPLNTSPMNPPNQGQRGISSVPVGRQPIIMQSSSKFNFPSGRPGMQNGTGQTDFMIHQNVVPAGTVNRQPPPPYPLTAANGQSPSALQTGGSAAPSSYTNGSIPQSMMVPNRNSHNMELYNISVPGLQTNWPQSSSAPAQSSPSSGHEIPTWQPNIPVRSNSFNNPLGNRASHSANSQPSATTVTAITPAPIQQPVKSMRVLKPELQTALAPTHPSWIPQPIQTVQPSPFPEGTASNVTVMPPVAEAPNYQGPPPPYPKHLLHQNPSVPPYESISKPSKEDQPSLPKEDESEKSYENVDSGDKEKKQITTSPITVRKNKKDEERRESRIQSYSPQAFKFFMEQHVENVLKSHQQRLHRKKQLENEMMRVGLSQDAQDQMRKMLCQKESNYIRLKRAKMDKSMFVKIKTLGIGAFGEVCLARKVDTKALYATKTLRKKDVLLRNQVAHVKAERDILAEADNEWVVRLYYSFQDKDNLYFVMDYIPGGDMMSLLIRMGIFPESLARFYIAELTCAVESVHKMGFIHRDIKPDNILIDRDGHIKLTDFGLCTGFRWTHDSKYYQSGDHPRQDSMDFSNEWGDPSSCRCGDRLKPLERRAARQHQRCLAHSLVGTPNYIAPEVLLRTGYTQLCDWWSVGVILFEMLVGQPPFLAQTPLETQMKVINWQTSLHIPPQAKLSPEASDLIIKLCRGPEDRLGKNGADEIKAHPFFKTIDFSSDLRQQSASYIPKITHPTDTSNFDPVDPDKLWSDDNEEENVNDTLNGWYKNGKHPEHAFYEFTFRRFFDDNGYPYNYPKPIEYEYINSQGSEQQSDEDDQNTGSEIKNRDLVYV
Put plainly: RBC HotSpot kinase assay (33P-ATP, P81 filter-binding), LATS1. To be noted: Table 28, biochemical kinase assay; read-out: LATS1 IC50. The gist of the method: (§1)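 Compounds were run as single 10-point titrations to give IC50 values in nM. Each kinase was mixed with substrate and cofactors in 20 mM Hepes pH 7.5 reaction buffer with 1% DMSO, then exposed to compound for 20 min. 33P-ATP was added for a 2 h room-temperature reaction, with activity measured by P81 filter binding.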

In assay [2] the target is T2, LATS2 (Homo sapiens, UniProt Q9NRM7).
T2 sequence (Q9NRM7 1-1088): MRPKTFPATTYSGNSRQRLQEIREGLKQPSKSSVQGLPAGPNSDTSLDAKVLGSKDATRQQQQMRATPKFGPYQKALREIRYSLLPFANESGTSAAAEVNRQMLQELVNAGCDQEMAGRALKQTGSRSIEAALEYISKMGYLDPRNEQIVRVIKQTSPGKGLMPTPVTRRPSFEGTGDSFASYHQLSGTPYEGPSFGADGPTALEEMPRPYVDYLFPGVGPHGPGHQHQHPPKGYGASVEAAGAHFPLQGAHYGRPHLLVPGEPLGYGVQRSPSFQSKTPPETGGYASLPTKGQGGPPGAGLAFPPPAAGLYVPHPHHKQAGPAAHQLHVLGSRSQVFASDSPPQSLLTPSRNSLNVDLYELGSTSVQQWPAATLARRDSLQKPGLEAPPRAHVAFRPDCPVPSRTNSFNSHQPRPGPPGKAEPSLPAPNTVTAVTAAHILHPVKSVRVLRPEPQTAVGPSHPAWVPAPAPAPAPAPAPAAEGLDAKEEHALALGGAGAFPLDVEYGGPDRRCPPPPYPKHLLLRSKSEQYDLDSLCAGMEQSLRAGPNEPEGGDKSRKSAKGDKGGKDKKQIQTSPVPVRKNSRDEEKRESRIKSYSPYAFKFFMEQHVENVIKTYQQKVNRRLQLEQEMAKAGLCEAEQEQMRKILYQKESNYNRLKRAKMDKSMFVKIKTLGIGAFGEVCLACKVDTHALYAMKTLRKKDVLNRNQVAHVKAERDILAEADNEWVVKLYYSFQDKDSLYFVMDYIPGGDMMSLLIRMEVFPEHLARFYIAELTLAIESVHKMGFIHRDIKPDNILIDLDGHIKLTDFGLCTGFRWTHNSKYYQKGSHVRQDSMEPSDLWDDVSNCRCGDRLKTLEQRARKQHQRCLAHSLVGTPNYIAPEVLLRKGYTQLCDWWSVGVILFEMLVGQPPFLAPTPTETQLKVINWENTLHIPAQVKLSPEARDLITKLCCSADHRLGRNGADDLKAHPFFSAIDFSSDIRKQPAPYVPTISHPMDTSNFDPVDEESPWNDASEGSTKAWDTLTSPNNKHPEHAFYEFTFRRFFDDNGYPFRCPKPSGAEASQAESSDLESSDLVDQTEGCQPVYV
Put plainly: RBC HotSpot kinase assay (33P-ATP, P81 filter-binding), LATS2. To be noted: Table 28, biochemical kinase assay; read-out: LATS2 IC50. The gist of the method:
as §1

In assay [3] the target is AKT (Homo sapiens, UniProt P31749). Briefly: RBC HotSpot kinase assay (33P-ATP, P81 filter-binding), AKT. To be noted: Table 28, biochemical kinase assay; read-out: AKT IC50. The gist of the method:
as §1

Sequence of AKT (P31749 whole entry): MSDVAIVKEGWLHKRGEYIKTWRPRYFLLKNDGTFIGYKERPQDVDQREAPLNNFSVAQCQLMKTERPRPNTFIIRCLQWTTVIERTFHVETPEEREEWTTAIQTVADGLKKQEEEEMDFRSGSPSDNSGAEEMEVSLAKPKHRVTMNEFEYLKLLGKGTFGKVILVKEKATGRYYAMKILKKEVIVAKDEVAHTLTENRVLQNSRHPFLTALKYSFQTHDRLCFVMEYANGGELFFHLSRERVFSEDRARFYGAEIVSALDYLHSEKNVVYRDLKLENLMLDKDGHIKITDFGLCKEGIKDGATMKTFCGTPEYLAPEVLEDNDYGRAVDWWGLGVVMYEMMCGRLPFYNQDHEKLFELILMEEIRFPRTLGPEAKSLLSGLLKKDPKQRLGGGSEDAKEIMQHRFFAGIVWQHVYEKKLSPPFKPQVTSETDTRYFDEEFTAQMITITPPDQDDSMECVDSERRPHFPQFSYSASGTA

For `Cc1cc(-c2ccnc3[nH]cc(F)c23)cc(F)c1[C@@]1(O)[C@H](C)CN(C(=O)[C@@H]2COCCN2)C[C@@H]1C` [Compound 68, ((3S,4R,5R)-4-(2-fluoro-4-(3-fluoro-1H-pyrrolo[2,3-b]pyridin-4-yl)-6-methylphenyl)-4-hydroxy-3,5-dimethylpiperidin-1-yl)((S)-morpholin-3-yl)methanone], the IC50 in assay [1] is 0.0138 µM; in assay [2], 0.0066 µM; in assay [3], 1.67 µM.

`Cc1cc(-c2ccnc3[nH]cc(F)c23)cc(F)c1[C@@]1(O)[C@H](C)CN(C(=O)[C@@H]2C[C@@H](O)CN2)C[C@@H]1C` [Compound 69, ((3S,4R,5R)-4-(2-fluoro-4-(3-fluoro-1H-pyrrolo[2,3-b]pyridin-4-yl)-6-methylphenyl)-4-hydroxy-3,5-dimethylpiperidin-1-yl)((2S,4R)-4-hydroxypyrrolidin-2-yl)methanone]: the IC50 in assay [1] came to 0.0085 µM; in assay [2], 0.0034 µM; in assay [3], 0.677 µM.

`Cc1cc(-c2ccnc3[nH]cc(F)c23)cc(F)c1[C@@]1(O)[C@H](C)CN(C(=O)[C@@H]2C[C@H](O)CN2)C[C@@H]1C` [Compound 70, ((3S,4R,5R)-4-(2-fluoro-4-(3-fluoro-1H-pyrrolo[2,3-b]pyridin-4-yl)-6-methylphenyl)-4-hydroxy-3,5-dimethylpiperidin-1-yl)((2S,4S)-4-hydroxypyrrolidin-2-yl)methanone]: the IC50 is 0.0078 µM in assay [1], 0.0025 µM in assay [2] and 0.376 µM in assay [3].

Regarding `Cc1cc(-c2ccnc3[nH]cc(F)c23)cc(F)c1[C@@]1(O)[C@H](C)CN(C(=O)CN(C)C)C[C@@H]1C` [Compound 71, 2-(dimethylamino)-1-((3S,4s,5R)-4-(2-fluoro-4-(3-fluoro-1H-pyrrolo[2,3-b]pyridin-4-yl)-6-methylphenyl)-4-hydroxy-3,5-dimethylpiperid-1-yl)ethan-1-one], the results for the 50% inhibitory concentration (IC50) in assay [1], in assay [2] and in assay [3] were 0.0113 µM, 0.0037 µM and 0.939 µM, respectively.

Regarding `C[C@@H]1CN(C(=O)C2CC(C)(C)C2)C[C@H](C)C1(O)c1c(F)cc(-c2ccnc3[nH]cc(F)c23)cc1F` (stereo partly drawn) [Compound 72, ((3S,5R)-4-(2,6-difluoro-4-(3-fluoro-1H-pyrrolo[2,3-b]pyridin-4-yl)phenyl)-4-hydroxy-3,5-dimethylpiperidin-1-yl)(3,3-dimethylcyclobutyl) methanone], the results for the IC50 in assay [1], in assay [2] and in assay [3] were 0.0274 µM, 0.06 µM and > 10 µM, respectively.

For `Cc1cc(-c2ccnc3[nH]cc(F)c23)cc(F)c1C1(O)[C@H](C)CN(C(=O)C2CC(F)(F)C2)C[C@@H]1C` (stereo partly drawn) [Compound 73, (3,3-difluorocyclobutyl) ((3S,5R)-4-(2-fluoro-4-(3-fluoro-1H-pyrrolo[2,3-b]pyridin-4-yl)-6-methylphenyl)-4-hydroxy-3,5-dimethylpiperidin-1-yl)methanone], the results for the IC50 in assay [1], in assay [2] and in assay [3] were 0.0147 µM, 0.0327 µM and 6.47 µM, respectively.

For the molecule `C[C@@H]1CN(C(=O)C2CC(C(F)(F)F)C2)C[C@H](C)C1(O)c1c(F)cc(-c2ccnc3[nH]cc(F)c23)cc1F` (stereo partly drawn) [Compound 74, ((3S,5R)-4-(2,6-difluoro-4-(3-fluoro-1H-pyrrolo[2,3-b]pyridin-4-yl)phenyl)-4-hydroxy-3,5-dimethylpiperidin-1-yl)(3-(trifluoromethyl)cyclobutyl)methanone], the figures for the IC50 in assay [1], in assay [2] and in assay [3] were 0.0353 µM, 0.0122 µM and > 10 µM, respectively.

In the case of `C[C@@H]1CN(C(=O)CN)C[C@H](C)[C@@]1(O)c1ccc(-c2ccnc3[nH]cc(F)c23)cc1Cl` [Compound 75, 2-amino-1-((3R,4s,S5S)-4-(2-chloro-4-(3-fluoro-1H-pyrrolo[2,3-b]pyridin-4-yl)phenyl)-4-hydroxy-3,5-dimethylpiperid-1-yl)ethan-1-one], the IC50 in assay [1] turned out to be 0.0199 µM; in assay [2], 0.005 µM; in assay [3], 0.14 µM.

`Cc1nc(-c2ccnc3[nH]cc(F)c23)ccc1C1(O)[C@H](C)CN(C(=O)CN)C[C@@H]1C` (stereo partly drawn) [Compound 76, 2-amino-1-((3S,5R)-4-(6-(3-fluoro-1H-pyrrolo[2,3-b]pyridin-4-yl)-2-methylpyridin-3-yl)-4-hydroxy-3,5-dimethylpiperidin-1-yl)ethan-1-one]: the IC50 in assay [1] came out at 0.0298 µM; in assay [2], 0.0189 µM; in assay [3] it was 1.72 µM.

Take `C[C@@H]1CN(C(=O)C(C)(C)N)C[C@H](C)C1(O)c1c(F)cc(-c2ccnc3[nH]cc(F)c23)cc1F` (stereo partly drawn) [Compound 77, 2-amino-1-((3S,5R)-4-(2,6-difluoro-4-(3-fluoro-1H-pyrrolo[2,3-b]pyridin-4-yl)phenyl)-4-hydroxy-3,5-dimethylpiperidin-1-yl)-2-methylpropan-1-one]: the half-maximal inhibitory concentration (IC50) in assay [1] amounted to 0.0246 µM; in assay [2], 0.0193 µM; in assay [3], 0.885 µM.

`C[C@@H]1CN(C(=O)C2(N)CC2)C[C@H](C)C1(O)c1c(F)cc(-c2ccnc3[nH]cc(F)c23)cc1F` (stereo partly drawn) [Compound 78, (1-aminocyclopropyl) ((3S,5R)-4-(2,6-difluoro-4-(3-fluoro-1H-pyrrolo[2,3-b]pyridin-4-yl)phenyl)-4-hydroxy-3,5-dimethylpiperidin-1-yl)methanone]: the IC50 in assay [1] was 0.0169 µM; in assay [2], 0.034 µM; in assay [3], 2.43 µM.

With `C[C@@H]1CN(C(=O)C2(N)CC(F)(F)C2)C[C@H](C)C1(O)c1c(F)cc(-c2ccnc3[nH]cc(F)c23)cc1F` (stereo partly drawn) [Compound 79, (1-amino-3,3-difluorocyclobutyl) ((3S,5R)-4-(2,6-difluoro-4-(3-fluoro-1H-pyrrolo[2,3-b]pyridin-4-yl)phenyl)-4-hydroxy-3,5-dimethylpiperidin-1-yl)methanone], the IC50 in assay [1] was 0.0128 µM; in assay [2], 0.0295 µM; in assay [3], 5.14 µM.

Turning to `C[C@@H]1CN(C(=O)CN(C)C)C[C@H](C)C1(O)c1c(F)cc(-c2ccnc3[nH]cc(F)c23)cc1F` (stereo partly drawn) [Compound 80, 1-((3S,5R)-4-(2,6-difluoro-4-(3-fluoro-1H-pyrrolo[2,3-b]pyridin-4-yl)phenyl)-4-hydroxy-3,5-dimethylpiperidin-1-yl)-2-(dimethylamino) ethan-1-one], the figures for the IC50 in assay [1], in assay [2] and in assay [3] were 0.0123 µM, 0.0128 µM and 0.7 µM, respectively.
